# Entries after “also recorded” stand apart in the source; their conditions may differ. Where a name gives a salt, the structure may show the parent alone. Read-outs that look alike come from different tables or passages of the source.
# Experiment: Hygroscopicity measurements
# Type: physicochemical
# Settings: for water absorbed (hygroscopicity): at 90% RH
# Method: Anhydrous citrate synthesis was carried out by adding 1.1 equivalents citric acid to a stirred slurry of the free base in isopropanol (15 volumes) at room temperature. The resulting solution was stirred and monitored by differential scanning calorimetry and after all the free base had reacted (18 hours), the anhydrous citrate salt was obtained as a white crystalline solid by filtration and drying under house vacuum at 45° C. with nitrogen purge (83% yield). […] The crystalline habits frequently encountered are microcrystalline flakes. The most intense reflections, d spacings, observed by X-ray powder diffraction were 17.608, 10.953, 8.782, 7.956, 7.371, 6.802, 6.571, 5.866, 5.462, 4.907, 4.415, 4.188, 3.635 and 3.512Å.
# The resulting citrate monohydrate salt, Form A, was compared to an authentic sample and characterized via PLM, X-ray powder diffraction, proton NMR, Karl Fisher, DSC and elemental analysis. […] The two crystalline habits having similar refractograms encountered were plates and needles. The needle habit was as a result of different rate of growth of the crystal faces in water whereas in isopropanol/water more even growth of crystal faces produced plates. The most intense reflections, d spacings, observed by X-ray powder diffraction were 17.730, 10.928, 9.651, 8.253, 6.707, 5.981, 5.666, 5.450, 4.833, 4.488, and 3.646Å. […] Elemental analysis validated the purity of the salt synthesized.
hygroscopicity (in words),Compound,water absorbed (hygroscopicity),hygroscopicity (in words) (citrate monohydrate)
,COc1ccc(C(C)C)cc1CNC1C2CCN(CC2)C1C(c1ccccc1)c1ccccc1.O.O=C(O)CC(O)(CC(=O)O)C(=O)O (stereo not shown) [Form A],2.44 % wt./wt.,hygroscopically stable; also recorded: lack of hygroscopicity
nonhygroscopic,"COc1ccc(C(C)C)cc1CN[C@H]1C2CCN(CC2)[C@H]1C(c1ccccc1)c1ccccc1 [anhydrous citrate salt, (2-Benzhydryl-1-azo-bicyclo[2.2.2]oct-3-yl)-(5-isopropyl-2-methoxybenzyl)-amine citrate]",1.11 % wt./wt.,

# Reference: patent US6387925B1, “Polymorphs of a crystalline azo-bicyclo (2.2.2) oct-3-yl amine citrate and their pharmaceutical compositions” (Pfizer Inc., priority 1999, dated 2002)
